Results as given in PubChem BioAssay (NCI).
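The compound was tested at five concentrations on cells cultured in 96-well plates, with a 48-hour exposure period. GI50 = concentration required for 50% inhibition of growth. TGI denotes the concentration required for complete inhibition of growth.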

What was measured:
Experiment in all cases: growth of human tumour cells (NCI), 48 h
[1] = test system: HOP-92 NSCLC
[2] = test system: COLO 205 colon
[3] = test system: A549 NSCLC
[4] = test system: LOX IMVI melanoma
[5] = test system: MDA-MB-435
[6] = test system: SK-MEL-5 melanoma
[7] = test system: HCC-2998 colon
[8] = test system: OVCAR-3 ovarian
[9] = test system: MDA-MB-231 breast
[10] = test system: KM12 colon
[11] = test system: T-47D breast
[12] = test system: NCI-H460 lung
[13] = test system: DU-145 prostate
[14] = test system: NCI-H226 lung
[15] = test system: EKVX NSCLC
[16] = test system: SF-539 CNS
[17] = test system: NCI/ADR-RES ovarian
[18] = test system: SK-MEL-28 melanoma
[19] = test system: TK-10 renal
[20] = test system: UACC-62 melanoma
[21] = test system: SF-268 CNS
[22] = test system: SN12C renal
[23] = test system: RPMI-8226 leukemia
[24] = test system: MOLT-4 leukemia
[25] = test system: HL-60(TB) leukemia
[26] = test system: SNB-19 CNS
[27] = test system: 786-0 renal
[28] = test system: BT-549 breast
[29] = test system: A498 renal
[30] = test system: SW-620 colon
[31] = test system: UACC-257 melanoma
[32] = test system: U251 CNS
[33] = test system: SNB-75 CNS
[34] = test system: PC-3 prostate
[35] = test system: CCRF-CEM leukemia
[36] = test system: HOP-62 NSCLC
[37] = test system: HCT-116 colon
[38] = test system: NCI-H23 lung
[39] = test system: HT29 colon
[40] = test system: MALME-3M melanoma
[41] = test system: SK-OV-3 ovarian
[42] = test system: SR leukemia
[43] = test system: HCT-15 colon
[44] = test system: K-562 leukemia
[45] = test system: IGROV1 ovarian
[46] = test system: ACHN renal
[47] = test system: OVCAR-5 ovarian
[48] = test system: M14 melanoma
[49] = test system: SK-MEL-2 melanoma
[50] = test system: OVCAR-4 ovarian
[51] = test system: CAKI-1 renal
[52] = test system: MCF7 breast
[53] = test system: RXF 393 renal
[54] = test system: HS 578T breast
[55] = test system: SF-295 CNS
[56] = test system: OVCAR-8 ovarian
[57] = test system: UO-31 renal
[58] = test system: NCI-H522 lung

CC(C)Oc1ccc(-c2nn([C@@H](C)c3oc4ccc(F)cc4c(=O)c3-c3cccc(F)c3)c3ncnc(N)c23)cc1F
GI50 [1]: 4.71 µM | TGI [1]: > 100 µM | GI50 [2]: 67.3 µM | TGI [2]: > 100 µM | GI50 [3]: 7.7 µM | TGI [3]: > 100 µM | GI50 [4]: > 100 µM | TGI [4]: > 100 µM | GI50 [5]: > 100 µM | TGI [5]: > 100 µM | GI50 [6]: 48.9 µM | TGI [6]: > 100 µM | GI50 [7]: > 100 µM | TGI [7]: > 100 µM | GI50 [8]: 30.2 µM | TGI [8]: > 100 µM | GI50 [9]: 22.9 µM | TGI [9]: > 100 µM | GI50 [10]: 25.8 µM | TGI [10]: > 100 µM | GI50 [11]: 5.42 µM | TGI [11]: > 100 µM | GI50 [12]: 17.6 µM | TGI [12]: > 100 µM | GI50 [13]: > 100 µM | TGI [13]: > 100 µM | GI50 [14]: 26.9 µM | TGI [14]: > 100 µM | GI50 [15]: 8.61 µM | TGI [15]: > 100 µM | GI50 [16]: 15.2 µM | TGI [16]: > 100 µM | GI50 [17]: 20.7 µM | TGI [17]: > 100 µM | GI50 [18]: > 100 µM | TGI [18]: > 100 µM | GI50 [19]: 7.29 µM | TGI [19]: > 100 µM | GI50 [20]: > 100 µM | TGI [20]: > 100 µM | GI50 [21]: 19.1 µM | TGI [21]: > 100 µM | GI50 [22]: 9.89 µM | TGI [22]: > 100 µM | GI50 [23]: 6.7 µM | TGI [23]: > 100 µM | GI50 [24]: 9.28 µM | TGI [24]: > 100 µM | GI50 [25]: 30.4 µM | TGI [25]: > 100 µM | GI50 [26]: 32.5 µM | TGI [26]: > 100 µM | GI50 [27]: 12.8 µM | TGI [27]: > 100 µM | GI50 [28]: 6.99 µM | TGI [28]: > 100 µM | GI50 [29]: 76.1 µM | TGI [29]: > 100 µM | GI50 [30]: > 100 µM | TGI [30]: > 100 µM | GI50 [31]: > 100 µM | TGI [31]: > 100 µM | GI50 [32]: 23.9 µM | TGI [32]: > 100 µM | GI50 [33]: > 100 µM | TGI [33]: > 100 µM | GI50 [34]: 4.68 µM | TGI [34]: > 100 µM | GI50 [35]: 6.17 µM | TGI [35]: > 100 µM | GI50 [36]: > 100 µM | TGI [36]: > 100 µM | GI50 [37]: 8.96 µM | TGI [37]: > 100 µM | GI50 [38]: 60.9 µM | TGI [38]: > 100 µM | GI50 [39]: 21.8 µM | TGI [39]: > 100 µM | GI50 [40]: > 100 µM | TGI [40]: > 100 µM | GI50 [41]: > 100 µM | TGI [41]: > 100 µM | GI50 [42]: 4.93 µM | TGI [42]: > 100 µM | GI50 [43]: 9.33 µM | TGI [43]: > 100 µM | GI50 [44]: 5.68 µM | TGI [44]: > 100 µM | GI50 [45]: > 100 µM | TGI [45]: > 100 µM | GI50 [46]: 50.1 µM | TGI [46]: > 100 µM | GI50 [47]: > 100 µM | TGI [47]: > 100 µM | GI50 [48]: > 100 µM | TGI [48]: > 100 µM | GI50 [49]: > 100 µM | TGI [49]: > 100 µM | GI50 [50]: > 100 µM | TGI [50]: > 100 µM | GI50 [51]: 5.6 µM | TGI [51]: > 100 µM | GI50 [52]: 6.79 µM | TGI [52]: > 100 µM | GI50 [53]: 4.36 µM | TGI [53]: > 100 µM | GI50 [54]: 47.5 µM | TGI [54]: > 100 µM | GI50 [55]: > 100 µM | TGI [55]: > 100 µM | GI50 [56]: 11.8 µM | TGI [56]: > 100 µM | GI50 [57]: 3.81 µM | TGI [57]: > 100 µM | GI50 [58]: > 100 µM | TGI [58]: > 100 µM
